“Also recorded” adds a separate entry of the source.
Legend:
[1] = system: patient-derived cancer cells with oncogenic RAS mutations (lung, colon, pancreatic, melanocytic); assay: AlamarBlue cell viability assay on panel of 17 patient-derived oncogenic RAS cancer cells; format: cell-based, human; conditions: panel of 17 lines; viable cells vs vehicle after 5 days
Experimental: (§1) Cell Viability Assay. To determine the effects of various drug treatments on oncogenic RAS mutant cells, an AlamarBlue assay (Invitrogen) was performed. 2500 cells were seeded in triplicate in 96-well plates one day prior to drug treatments. For TRI-102 and AML-RAS cells, fluorescence was measured at 72 hrs after drug addition. For other oncogenic RAS cells, fluorescence was measured 120 hrs after drug addition.
as §1, with “cells,” for “cells, an”

AML-RAS cells [2] = assay: AlamarBlue cell viability assay on AML-RAS cells; format: cell-based, human; conditions: 3 days after treatment; 20 mM LiCl, 5 uM Kenpaullone or 2 uM BIO
Experimental: as §1
as §1, with “cells,” for “cells, an”

A549 lung cancer cells = assay: AlamarBlue cell viability assay on A549 cells; format: cell-based, human; conditions: viable cells vs vehicle after 5 days; SMARCA4 frame shift deletion
Experimental: as §1
as §1, with “cells,” for “cells, an”

AML-RAS xenografts = assay: AML-RAS cell xenograft model; format: in vivo, nude mice; conditions: LiCl 340 mg/kg intraperitoneal every two days, 28 days
Experimental: (§2) Xenograft. 10^6 AML-RAS cells were resuspended in PBS and inoculated subcutaneously into both flanks of 6-week old female nude mice (Charles River Laboratory). Seven days after transplantation, animals were treated with intraperitoneal injections of LiCl (340 mg/kg body weight), or an equal volume of vehicle (PBS) every two days. Tumor volume (mm3) and body weight (g) were measured every 2 days. The tumor volume was estimated by using caliper measurements based on formula W^2×L/2 (L is the length of the tumor, W is the width of the tumor). All experiments were approved by and conducted in compliance with the Yale Animal Resources Center and the Institutional Animal Care and Use Committee under protocol number 2008-10230.
as §2, with “estimated” for “estimated by”, “All experiments were approved by and conducted in compliance with the Yale Animal Resources Center and the Institutional Animal Care and Use Committee under protocol number 2008-10230.” left out

H1792 cells = assay: Soft agar assay on H1792 cells; format: cell-based, human; conditions: 20 mM LiCl
Experimental: (§3) Softagar Assay. Soft agar assays were performed in triplicate in 6-well plates. For each well, a bottom layer containing 1% agar in growth medium was added. Then 10,000 cells were plated in 0.5% agar in growth medium. Growth medium was added to each well and changed every 3 days. The colonies were counted after 3-4 weeks.

AML-RAS cells [3] = assay: Soft agar assay on AML-RAS cells; format: cell-based, human; conditions: 20 mM LiCl; colonies counted after 3-4 weeks
Experimental: as §3

A549 cells = assay: Soft agar assay on A549 cells; format: cell-based, human; conditions: 20 mM LiCl
Experimental: as §3

Structure (SMILES)	growth of patient-derived cancer cells harboring oncogenic KRAS, NRAS or HRAS mutations [1]	growth of the AML-RAS cells (viable cells) (AML-RAS cells [2])	growth of A549 lung cancer cells (A549 lung cancer cells)	tumor growth in AML-RAS xenografts (AML-RAS xenografts; nude mice)	health of the recipient mice (body weight) (AML-RAS xenografts; tumor-suppressing dose)	anchorage-independent growth of the H1792 cells in soft agar (H1792 cells)	anchorage-independent growth of the AML-RAS cells in soft agar (AML-RAS cells [3])	anchorage-independent growth of the A549 cells in soft agar (A549 cells)
O=C1Nc2cc(Br)ccc2/C1=C1/Nc2ccccc2/C1=N\O [BIO, 6-bromoindirubin-30-oxime]	suppresses the growth	specifically inhibited the growth	not significantly suppressed	–	–	–	–	–
O=C1Cc2c([nH]c3ccc(Br)cc23)-c2ccccc2N1 [Kenpaullone]	suppresses the growth	specifically inhibited the growth	not significantly suppressed	–	–	–	–	–
[Cl-].[Li+] [LiCl, lithium chloride]	suppresses the growth	specifically impaired the growth	not significantly suppressed	dramatically suppressed	not affected	completely inhibited; also recorded: dramatically inhibited	prevented; also recorded: dramatically suppressed	failed to suppress

Reference: patent US10407734B2, “Compositions and methods of using transposons” (Yale University, priority 2013, dated 2019)
